Data on 23 compounds can be found in patent publication US8134007B2, “Pyridine derivatives” (Pfizer Inc., priority 2007, dated 2012).

Like-named read-outs stand apart in the source and are kept apart here.

One experiment deals with T1, Human Nav1.8 (Homo sapiens, UniProt Q9Y5Y9).
T1 construct: expressed in transfected cells; host or cells: HEK293
The experiment can be described thus: VIPR Assay for Nav1.8 Compounds (FRET membrane potential, deltamethrin opener). In kind it is cell-based.

The target in the next experiment is T2, Human Nav1.5 (Homo sapiens, UniProt Q14524).
T2 construct: expressed in transfected cells; host or cells: HEK293
The experiment can be described thus: Nav1.5 Assay (VIPR, HEK293 cells). In kind it is cell-based. The protocol:
The Nav1.5 assay is performed in HEK293 cells expressing Human Nav1.5 in the same way as the Nav1.8 assay.
Where replicate experiments were conducted resulting in multiple sets of data for a test compound, the data presented represent the average value from all replicate experiments.

The mark [1] stands for this setting: VIPR FRET membrane potential assay, deltamethrin opener, average of replicates, read-out: Nav1.8 IC50.
Setting [2] is: HEK293 cells expressing Human Nav1.5, average of replicates, read-out: Nav1.5 IC50.

T2 sequence (Q14524 whole entry): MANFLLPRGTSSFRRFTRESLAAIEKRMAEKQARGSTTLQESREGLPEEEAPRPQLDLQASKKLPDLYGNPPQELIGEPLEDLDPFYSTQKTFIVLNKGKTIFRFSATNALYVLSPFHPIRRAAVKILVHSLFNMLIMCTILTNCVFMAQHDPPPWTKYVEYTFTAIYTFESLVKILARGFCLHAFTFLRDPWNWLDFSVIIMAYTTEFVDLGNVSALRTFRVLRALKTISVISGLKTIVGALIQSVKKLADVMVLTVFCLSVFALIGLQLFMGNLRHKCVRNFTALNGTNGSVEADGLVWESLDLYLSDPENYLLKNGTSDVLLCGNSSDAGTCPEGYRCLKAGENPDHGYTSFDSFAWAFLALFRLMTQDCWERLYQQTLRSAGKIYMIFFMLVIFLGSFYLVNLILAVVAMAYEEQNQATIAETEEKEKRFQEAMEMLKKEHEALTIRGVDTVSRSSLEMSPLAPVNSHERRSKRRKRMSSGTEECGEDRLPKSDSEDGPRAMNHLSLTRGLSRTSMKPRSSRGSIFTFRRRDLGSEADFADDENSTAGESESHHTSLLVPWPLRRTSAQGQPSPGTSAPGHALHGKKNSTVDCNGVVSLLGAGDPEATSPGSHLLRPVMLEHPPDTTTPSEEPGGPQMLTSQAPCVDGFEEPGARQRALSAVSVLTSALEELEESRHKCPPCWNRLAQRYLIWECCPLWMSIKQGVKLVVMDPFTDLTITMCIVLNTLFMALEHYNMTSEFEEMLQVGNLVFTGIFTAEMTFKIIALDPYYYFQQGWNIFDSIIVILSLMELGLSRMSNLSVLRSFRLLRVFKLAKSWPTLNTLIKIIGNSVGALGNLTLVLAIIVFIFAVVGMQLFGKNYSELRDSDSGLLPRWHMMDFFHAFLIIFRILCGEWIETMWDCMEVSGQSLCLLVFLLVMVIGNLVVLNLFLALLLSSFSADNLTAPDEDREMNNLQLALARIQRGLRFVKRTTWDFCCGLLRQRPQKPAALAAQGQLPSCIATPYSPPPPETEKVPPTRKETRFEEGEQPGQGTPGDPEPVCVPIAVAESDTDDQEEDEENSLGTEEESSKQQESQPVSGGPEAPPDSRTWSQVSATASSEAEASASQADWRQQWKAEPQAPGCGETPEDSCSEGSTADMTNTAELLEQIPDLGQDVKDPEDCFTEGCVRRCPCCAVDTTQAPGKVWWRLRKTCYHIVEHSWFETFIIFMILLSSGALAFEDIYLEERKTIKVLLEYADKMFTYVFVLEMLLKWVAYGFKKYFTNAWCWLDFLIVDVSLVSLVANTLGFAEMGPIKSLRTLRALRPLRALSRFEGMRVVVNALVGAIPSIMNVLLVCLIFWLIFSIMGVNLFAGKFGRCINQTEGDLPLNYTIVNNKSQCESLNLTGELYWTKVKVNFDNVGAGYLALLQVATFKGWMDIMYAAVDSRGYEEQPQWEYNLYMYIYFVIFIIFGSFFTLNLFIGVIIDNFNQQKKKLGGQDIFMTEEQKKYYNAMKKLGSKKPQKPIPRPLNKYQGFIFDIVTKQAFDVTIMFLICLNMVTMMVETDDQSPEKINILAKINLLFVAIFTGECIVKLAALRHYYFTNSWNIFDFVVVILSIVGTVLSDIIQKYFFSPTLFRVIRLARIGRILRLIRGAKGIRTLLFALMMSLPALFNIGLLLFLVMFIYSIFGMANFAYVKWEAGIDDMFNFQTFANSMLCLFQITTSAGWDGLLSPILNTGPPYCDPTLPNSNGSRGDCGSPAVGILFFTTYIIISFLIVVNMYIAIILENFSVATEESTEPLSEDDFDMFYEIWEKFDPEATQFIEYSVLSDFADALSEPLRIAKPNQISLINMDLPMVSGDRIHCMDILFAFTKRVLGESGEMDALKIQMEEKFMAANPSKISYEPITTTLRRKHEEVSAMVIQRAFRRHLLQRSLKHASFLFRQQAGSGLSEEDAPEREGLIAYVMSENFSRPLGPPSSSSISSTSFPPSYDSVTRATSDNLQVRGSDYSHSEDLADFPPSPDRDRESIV
T1 sequence (Q9Y5Y9 whole entry): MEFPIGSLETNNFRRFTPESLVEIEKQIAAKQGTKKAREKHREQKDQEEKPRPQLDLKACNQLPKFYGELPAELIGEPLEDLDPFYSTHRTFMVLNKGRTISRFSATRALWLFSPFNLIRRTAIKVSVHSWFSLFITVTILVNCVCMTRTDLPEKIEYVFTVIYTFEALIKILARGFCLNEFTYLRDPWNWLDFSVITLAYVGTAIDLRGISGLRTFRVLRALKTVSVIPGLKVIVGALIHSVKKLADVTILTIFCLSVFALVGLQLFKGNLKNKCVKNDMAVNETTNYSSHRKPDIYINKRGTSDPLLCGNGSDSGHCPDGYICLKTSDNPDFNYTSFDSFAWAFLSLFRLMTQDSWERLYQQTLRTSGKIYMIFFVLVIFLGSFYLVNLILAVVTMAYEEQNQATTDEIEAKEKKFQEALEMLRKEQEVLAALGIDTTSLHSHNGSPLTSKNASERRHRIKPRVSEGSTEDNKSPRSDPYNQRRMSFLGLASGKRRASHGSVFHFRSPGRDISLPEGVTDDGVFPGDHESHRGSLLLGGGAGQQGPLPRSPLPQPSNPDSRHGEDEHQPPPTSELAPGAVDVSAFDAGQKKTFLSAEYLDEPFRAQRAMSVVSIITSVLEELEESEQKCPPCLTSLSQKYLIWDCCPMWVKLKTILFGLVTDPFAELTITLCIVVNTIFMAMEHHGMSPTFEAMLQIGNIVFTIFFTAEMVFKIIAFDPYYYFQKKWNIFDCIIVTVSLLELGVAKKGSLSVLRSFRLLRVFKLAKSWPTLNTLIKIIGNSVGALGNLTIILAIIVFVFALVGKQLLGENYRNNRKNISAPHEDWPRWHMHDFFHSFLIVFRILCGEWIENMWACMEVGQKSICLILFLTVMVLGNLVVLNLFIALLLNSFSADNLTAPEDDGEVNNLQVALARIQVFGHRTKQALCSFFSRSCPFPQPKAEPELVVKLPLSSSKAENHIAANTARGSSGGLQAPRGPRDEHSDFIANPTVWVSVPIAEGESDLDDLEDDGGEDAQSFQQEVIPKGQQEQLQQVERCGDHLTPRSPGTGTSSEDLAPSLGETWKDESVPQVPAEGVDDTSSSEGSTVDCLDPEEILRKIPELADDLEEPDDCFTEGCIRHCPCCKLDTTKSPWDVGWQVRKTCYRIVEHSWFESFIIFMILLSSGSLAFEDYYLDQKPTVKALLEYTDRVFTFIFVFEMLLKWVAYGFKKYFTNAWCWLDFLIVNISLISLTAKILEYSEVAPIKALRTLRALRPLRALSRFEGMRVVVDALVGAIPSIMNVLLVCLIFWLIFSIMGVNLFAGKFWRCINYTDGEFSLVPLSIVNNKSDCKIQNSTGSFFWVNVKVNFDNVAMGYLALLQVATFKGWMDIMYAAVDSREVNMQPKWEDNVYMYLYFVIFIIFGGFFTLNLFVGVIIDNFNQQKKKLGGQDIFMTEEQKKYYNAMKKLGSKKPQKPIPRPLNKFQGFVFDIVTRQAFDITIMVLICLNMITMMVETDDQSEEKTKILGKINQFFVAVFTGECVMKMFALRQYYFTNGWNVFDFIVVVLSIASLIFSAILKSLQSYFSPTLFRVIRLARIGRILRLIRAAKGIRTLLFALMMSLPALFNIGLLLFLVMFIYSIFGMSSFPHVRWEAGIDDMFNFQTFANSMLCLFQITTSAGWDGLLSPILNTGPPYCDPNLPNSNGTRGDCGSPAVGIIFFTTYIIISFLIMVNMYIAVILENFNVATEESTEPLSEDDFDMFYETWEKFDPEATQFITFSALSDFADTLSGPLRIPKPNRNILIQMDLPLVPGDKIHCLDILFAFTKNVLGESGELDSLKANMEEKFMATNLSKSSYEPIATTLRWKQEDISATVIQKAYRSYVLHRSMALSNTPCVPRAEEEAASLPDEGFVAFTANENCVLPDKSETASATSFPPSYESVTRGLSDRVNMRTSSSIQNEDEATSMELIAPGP

As to `Cn1nccc1C(=O)Nc1ccc(-c2cc(Cl)cc(Cl)c2Cl)c(N)n1` [Example 4, N-[6-Amino-5-(2,3,5-trichlorophenyl)pyridin-2-yl]-1-methyl-1H-pyrazole-5-carboxamide], the IC50 – broadly, the point on the concentration scale where inhibition reaches its midpoint – at Human Nav1.8 (setting [1]) is 0.68 µM.

In the case of `COC(C)COc1ccccc1-c1ccc(NC(=O)c2ccnn2C)nc1N` (centres unmarked) [Example 160], the IC50 on Human Nav1.8 (setting [1]) was 13 µM; at Human Nav1.5 (setting [2]) it was more than 32 µM.

Regarding `CCCOc1ccc(F)cc1-c1ccc(NC(=O)c2conc2C)nc1N` [Example 162], the concentration for half-maximal inhibition (IC50) at Human Nav1.8 (setting [1]) came to 0.09 µM; at Human Nav1.5 (setting [2]), 7.7 µM.

For `COCCCOc1ccccc1-c1ccc(NC(=O)c2conc2C)nc1N` [Example 156], the half-inhibitory concentration (IC50) was found to be 3.1 µM at Human Nav1.8 (setting [1]) and 31 µM at Human Nav1.5 (setting [2]).

Take `Cc1nocc1C(=O)Nc1ccc(-c2ccccc2CC(F)(F)F)c(N)n1` [Example 146]: at Human Nav1.5 (setting [2]), the IC50 turned out to be 13 µM.

Turning to `COc1ccc(Cl)c(-c2ccc(NC(=O)c3ccnn3C(C)C)nc2N)c1` [Example 142], the half-maximal inhibitory concentration (IC50) on Human Nav1.8 (setting [1]) worked out at 0.96 µM; at Human Nav1.5 (setting [2]) it was 17 µM.

Consider `COCCCOc1ccccc1-c1ccc(NC(=O)c2ccnn2C)nc1N` [Example 157], for which the figures for the IC50 on Human Nav1.8 (setting [1]) and at Human Nav1.5 (setting [2]) were 9.5 µM and more than 32 µM, respectively.

As for `COc1cccc(-c2ccc(NC(=O)c3ccnn3C)nc2N)c1OC` [Example 125], the IC50 was 25 µM on Human Nav1.8 and more than 32 µM against Human Nav1.5.

Regarding `COCCOc1ccc(Cl)c(-c2ccc(NC(=O)c3ccnn3C)nc2N)c1` [Example 151], the IC50 is 5.1 µM on Human Nav1.8 (setting [1]) and more than 32 µM at Human Nav1.5 (setting [2]).

As for `COCCOc1ccc(F)cc1-c1ccc(NC(=O)c2conc2C)nc1N` [Example 169], the results for the IC50 at Human Nav1.8 (setting [1]) and on Human Nav1.5 (setting [2]) were 4.9 µM and more than 32 µM, respectively.

In the case of `COC(C)COc1ccccc1-c1ccc(NC(=O)c2conc2C)nc1N` (centres unmarked) [Example 161], the half-inhibitory concentration (IC50) is 6.7 µM at Human Nav1.8 (setting [1]) and more than 32 µM at Human Nav1.5 (setting [2]).

Take `COc1ccc(OC(F)(F)F)c(-c2ccc(NC(=O)c3ccnn3C)nc2N)c1` [Example 140]: the IC50 at Human Nav1.8 (setting [1]) stood at 0.43 µM; at Human Nav1.5 (setting [2]), 18 µM.

Consider `CCOc1ccc(F)cc1-c1ccc(NC(=O)c2conc2C)nc1N` [Example 135], for which the IC50 at Human Nav1.8 (setting [1]) is 0.28 µM; on Human Nav1.5 (setting [2]) it was 26 µM.

On to `CCOc1ccc(Cl)c(-c2ccc(NC(=O)c3conc3C)nc2N)c1` [Example 154], for which the concentration for half-maximal inhibition (IC50) worked out at 0.47 µM at Human Nav1.8 (setting [1]) and 10 µM on Human Nav1.5 (setting [2]).

`COCCOc1ccccc1-c1ccc(NC(=O)c2conc2C)nc1N` [Example 149]: the IC50 on Human Nav1.8 (setting [1]) is 4 µM; on Human Nav1.5 (setting [2]), more than 32 µM.

Turning to `CCOc1ccc(OC(F)(F)F)c(-c2ccc(NC(=O)c3ccnn3C)nc2N)c1` [Example 110, N-{6-amino-5-[5-ethoxy-2-(trifluoromethoxy)phenyl]pyridin-2-yl}-1-methyl-1H-pyrazole-5-carboxamide], the IC50 at Human Nav1.8 (setting [1]) is 1.5 µM; on Human Nav1.5 (setting [2]), 2.3 µM.

Regarding `COCc1ccccc1-c1ccc(NC(=O)c2conc2C)nc1N` [Example 129], the concentration for half-maximal inhibition (IC50) on Human Nav1.8 (setting [1]) came to 3.5 µM; at Human Nav1.5 (setting [2]) it was 20 µM.

With `COCCOc1ccc(F)cc1-c1ccc(NC(=O)c2ccnn2C)nc1N` [Example 147], the concentration for half-maximal inhibition (IC50) at Human Nav1.8 (setting [1]) is 12 µM; on Human Nav1.5 (setting [2]), more than 32 µM.

Turning to `COCc1ccc(Cl)c(-c2ccc(NC(=O)c3conc3C)nc2N)c1` [Example 138], the IC50 on Human Nav1.8 (setting [1]) came out at 1 µM; on Human Nav1.5 (setting [2]), 23 µM.

On to `Cc1nocc1C(=O)Nc1ccc(-c2cc(O)cc(Cl)c2Cl)c(N)n1` [Example 176], for which the 50% inhibitory concentration (IC50) turned out to be 1.4 µM at Human Nav1.8 (setting [1]) and 10 µM on Human Nav1.5 (setting [2]).

Consider `COc1ccc(F)cc1-c1ccc(NC(=O)c2conc2C)nc1N` [Example 123], for which the IC50 was 2.4 µM at Human Nav1.8 (setting [1]) and more than 32 µM on Human Nav1.5 (setting [2]).

For the compound `COc1ccc(OC(F)(F)F)c(-c2ccc(NC(=O)c3conc3C)nc2N)c1` [Example 148], the results for the IC50 at Human Nav1.8 (setting [1]) and at Human Nav1.5 (setting [2]) were 0.56 µM and 10 µM, respectively.

For the compound `COCCCOc1ccc(F)cc1-c1ccc(NC(=O)c2conc2C)nc1N` [Example 152], the values for the half-maximal inhibitory concentration (IC50) at Human Nav1.8 (setting [1]) and on Human Nav1.5 (setting [2]) were 1.9 µM and 31 µM, respectively.
